This series has as its system cancer cells. Briefly: MTT cytotoxic assay of esterification products (Cytotoxicity activity). The format is cell-based, human. An outline of the steps:
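Cytotoxicity was read by MTT (Carmichael method, modified), with cells seeded 24 h ahead of treatment. Sixteen human cancer lines spanning bone, lung, bladder, ovary, colon, pancreas, prostate, skin, mouth, kidney, breast, liver, brain, leukemia and cervix were used. Test samples were acyl chloride esterification products of triterpenes, as mixtures or HPLC-purified compounds.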

[1] abbreviates: MTT cytotoxic assay, isolated esterification products of E4A.
Setting [2] is: E4A esterified with Acetyl chloride (Acy = Acetyl), compounds isolated with HPLC.

Molecules are shown by their SMILES.

With `CCC(CC)C(=O)OCC1(C)C(O)CCC2(C)C1CCC1(C)C2CC=C2C3CC(C)(C)C(O)C(OC(=O)C(CC)CC)C3(COC(=O)C(CC)CC)C(O)CC21C` (centres unmarked) [Compound E5], the Cytotoxicity activity entry under setting [1] is listed as “moderate”.
As for `CCC(CC)C(=O)OCC1(C)C(OC(=O)C(CC)CC)CCC2(C)C1CCC1(C)C2CC=C2C3CC(C)(C)C(O)C(O)C3(COC(=O)C(CC)CC)C(O)CC21C` (centres unmarked) [Compound E6], the Cytotoxicity activity entry under setting [1] is given as “moderate”.
Still for that read-out and setting: the same measure for `CCC(CC)C(=O)OCC1(C)C(O)CCC2(C)C1CCC1(C)C2CC=C2C3CC(C)(C)C(O)C(O)C3(COC(=O)C(CC)CC)C(OC(=O)C(CC)CC)CC21C` (centres unmarked) [Compound E7]: “moderate”; for `CCC(CC)C(=O)OCC1(C)C(O)CCC2(C)C1CCC1(C)C2CC=C2C3CC(C)(C)C(OC(=O)C(CC)CC)C(OC(=O)C(CC)CC)C3(COC(=O)C(CC)CC)C(O)CC21C` (centres unmarked) [Compound E8]: “weak”.
Same read-out and setting: the same measure for `CCC(CC)C(=O)OCC1(C)C(OC(=O)C(CC)CC)CCC2(C)C1CCC1(C)C2CC=C2C3CC(C)(C)C(O)C(OC(=O)C(CC)CC)C3(COC(=O)C(CC)CC)C(O)CC21C` (centres unmarked) [Compound E9]: “weak”; for `CCC(CC)C(=O)OCC1(C)C(OC(=O)C(CC)CC)CCC2(C)C1CCC1(C)C2CC=C2C3CC(C)(C)C(O)C(O)C3(COC(=O)C(CC)CC)C(OC(=O)C(CC)CC)CC21C` (centres unmarked) [Compound E10]: “weak”.
`CCC(CC)C(=O)OCC1(C)C(OC(=O)C(CC)CC)CCC2(C)C1CCC1(C)C2CC=C2C3CC(C)(C)C(OC(=O)C(CC)CC)C(O)C3(COC(=O)C(CC)CC)C(O)CC21C` (centres unmarked) [Compound E11]: the Cytotoxicity activity result under setting [1] was “weak”.
The same measure, in the same setting: the same measure for `CCC(CC)C(=O)OCC1(C)C(O)CCC2(C)C1CCC1(C)C2CC=C2C3CC(C)(C)C(O)C(OC(=O)C(CC)CC)C3(COC(=O)C(CC)CC)C(OC(=O)C(CC)CC)CC21C` (centres unmarked) [Compound E12]: “weak”.
`CCC(CC)C(=O)OCC1(C)C(O)CCC2(C)C1CCC1(C)C2CC=C2C3CC(C)(C)C(OC(=O)C(CC)CC)C(O)C3(COC(=O)C(CC)CC)C(OC(=O)C(CC)CC)CC21C` (centres unmarked) [Compound E13]: under setting [1], the Cytotoxicity activity result is recorded as “weak”.
For the compound `CCC(CC)C(=O)OCC1(C)C(OC(=O)C(CC)CC)CCC2(C)C1CCC1(C)C2CC=C2C3CC(C)(C)C(O)C(OC(=O)C(CC)CC)C3(COC(=O)C(CC)CC)C(O)CC21C` (centres unmarked) [Compound E14], the Cytotoxicity activity result under setting [1] is on record as “weak”.
The same measure, in the same setting: the same measure for `CCC(CC)C(=O)OCC1(C)C(OC(=O)C(CC)CC)CCC2(C)C1CCC1(C)C2CC=C2C3CC(C)(C)C(OC(=O)C(CC)CC)C(OC(=O)C(CC)CC)C3(COC(=O)C(CC)CC)C(O)CC21C` (centres unmarked) [Compound E15]: “weak”; for `CCC(CC)C(=O)OCC1(C)C(O)CCC2(C)C1CCC1(C)C2CC=C2C3CC(C)(C)C(OC(=O)C(CC)CC)C(OC(=O)C(CC)CC)C3(COC(=O)C(CC)CC)C(OC(=O)C(CC)CC)CC21C` (centres unmarked) [Compound E16]: “weak”.
Same read-out and setting: the same measure for `CCC(CC)C(=O)OCC1(C)C(OC(=O)C(CC)CC)CCC2(C)C1CCC1(C)C2CC=C2C3CC(C)(C)C(OC(=O)C(CC)CC)C(O)C3(COC(=O)C(CC)CC)C(OC(=O)C(CC)CC)CC21C` (centres unmarked) [Compound E17]: “weak”.
Same read-out and setting: the same measure for `CCC(CC)C(=O)OCC1(C)C(OC(=O)C(CC)CC)CCC2(C)C1CCC1(C)C2CC=C2C3CC(C)(C)C(O)C(OC(=O)C(CC)CC)C3(COC(=O)C(CC)CC)C(OC(=O)C(CC)CC)CC21C` (centres unmarked) [Compound E18]: “weak”.
As for `CCC(CC)C(=O)OCC1(C)C(OC(=O)C(CC)CC)CCC2(C)C1CCC1(C)C2CC=C2C3CC(C)(C)C(OC(=O)C(CC)CC)C(OC(=O)C(CC)CC)C3(COC(=O)C(CC)CC)C(OC(=O)C(CC)CC)CC21C` (centres unmarked) [Compound E19], the Cytotoxicity activity entry under setting [1] was “none”.
As to `CCC(CC)C(=O)OCC12C(O)CC3(C)C(=CCC4C5(C)CCC(O)C(C)(CO)C5CCC43C)C1CC(C)(C)C(OC(=O)C(CC)CC)C2OC(=O)C(CC)CC` (centres unmarked) [Compound E20], the Cytotoxicity activity result under setting [1] was “moderate”.
On the same count and under the same terms, the same measure for `CCC(CC)C(=O)OCC1(C)C(O)CCC2(C)C1CCC1(C)C2CC=C2C3CC(C)(C)C(OC(=O)C(CC)CC)C(OC(=O)C(CC)CC)C3(CO)C(O)CC21C` (centres unmarked) [Compound E21]: “moderate”.
On the same count and under the same terms, the same measure for `CCC(CC)C(=O)OC1C(OC(=O)C(CC)CC)C2(CO)C(OC(=O)C(CC)CC)CC3(C)C(=CCC4C5(C)CCC(O)C(C)(CO)C5CCC43C)C2CC1(C)C` (centres unmarked) [Compound E22]: “moderate”; for `CCC(CC)C(=O)OC1C(OC(=O)C(CC)CC)C2(CO)C(O)CC3(C)C(=CCC4C5(C)CCC(OC(=O)C(CC)CC)C(C)(CO)C5CCC43C)C2CC1(C)C` (centres unmarked) [Compound E23]: “moderate”; for `CCC(CC)C(=O)OC1C(OC(=O)C(CC)CC)C2(CO)C(O)CC3(C)C(=CCC4C5(C)CCC(O)C(C)(CO)C5CCC43C)C2CC1(C)C` (centres unmarked) [Compound E24]: “moderate”.
For `CCC(CC)C(=O)OCC12C(O)CC3(C)C(=CCC4C5(C)CCC(O)C(C)(CO)C5CCC43C)C1CC(C)(C)C(OC(=O)C(CC)CC)C2O` (centres unmarked) [Compound E25], under setting [1], the Cytotoxicity activity entry is listed as “moderate”.
For `CCC(CC)C(=O)OCC12C(O)CC3(C)C(=CCC4C5(C)CCC(O)C(C)(CO)C5CCC43C)C1CC(C)(C)C(O)C2OC(=O)C(CC)CC` (centres unmarked) [Compound E26], the Cytotoxicity activity result under setting [1] was “moderate”.
The same measure, in the same setting: the same measure for `CCC(CC)C(=O)OCC12C(O)CC3(C)C(=CCC4C5(C)CCC(OC(=O)C(CC)CC)C(C)(CO)C5CCC43C)C1CC(C)(C)C(O)C2O` (centres unmarked) [Compound E27]: “moderate”; for `CCC(CC)C(=O)OCC12C(OC(=O)C(CC)CC)CC3(C)C(=CCC4C5(C)CCC(O)C(C)(CO)C5CCC43C)C1CC(C)(C)C(O)C2O` (centres unmarked) [Compound E28]: “moderate”; for `CCC(CC)C(=O)OCC1(C)C(O)CCC2(C)C1CCC1(C)C2CC=C2C3CC(C)(C)C(OC(=O)C(CC)CC)C(O)C3(CO)C(O)CC21C` (centres unmarked) [Compound E29]: “moderate”.
On the same count and under the same terms, the same measure for `CCC(CC)C(=O)OCC1(C)C(O)CCC2(C)C1CCC1(C)C2CC=C2C3CC(C)(C)C(O)C(OC(=O)C(CC)CC)C3(CO)C(O)CC21C` (centres unmarked) [Compound E30]: “moderate”.
On the same count and under the same terms, the same measure for `CCC(CC)C(=O)OCC1(C)C(OC(=O)C(CC)CC)CCC2(C)C1CCC1(C)C2CC=C2C3CC(C)(C)C(O)C(O)C3(CO)C(O)CC21C` (centres unmarked) [Compound E31]: “moderate”; for `CCC(CC)C(=O)OCC1(C)C(O)CCC2(C)C1CCC1(C)C2CC=C2C3CC(C)(C)C(O)C(O)C3(CO)C(OC(=O)C(CC)CC)CC21C` (centres unmarked) [Compound E32]: “moderate”.
Consider `C/C=C(/C)C(=O)OC[C@]1(C)[C@@H]2CC[C@]3(C)[C@H](CC=C4[C@@H]5CC(C)(C)[C@@H](O)[C@H](O)[C@]5(CO)[C@H](O)C[C@]43C)[C@@]2(C)CC[C@@H]1OC(=O)/C(C)=C\C` [Compound G31], for which the Cytotoxicity activity entry under setting [1] is “moderate”.
Consider `CC(=O)OCC1(C)C(O)CCC2(C)C1CCC1(C)C2CC=C2C3CC(C)(C)C(O)C(O)C3(CO)C(O)CC21C` (centres unmarked) [Compound H1], for which the Cytotoxicity activity result under setting [2] is “moderate”.
On to `CC(=O)OCC12C(O)CC3(C)C(=CCC4C5(C)CCC(O)C(C)(CO)C5CCC43C)C1CC(C)(C)C(O)C2O` (centres unmarked) [Compound H2], for which the Cytotoxicity activity result under setting [2] is reported as “moderate”.
Consider `CC(=O)OCC1(C)C(O)CCC2(C)C1CCC1(C)C2CC=C2C3CC(C)(C)C(O)C(O)C3(COC(C)=O)C(O)CC21C` (centres unmarked) [Compound H3], for which the Cytotoxicity activity result under setting [2] is listed as “strong”.
On the same count and under the same terms, the same measure for `CC(=O)OCC1(C)C(O)CCC2(C)C1CCC1(C)C2CC=C2C3CC(C)(C)C(OC(C)=O)C(O)C3(COC(C)=O)C(O)CC21C` (centres unmarked) [Compound H4]: “moderate”.
On the same count and under the same terms, the same measure for `CC(=O)OCC1(C)C(O)CCC2(C)C1CCC1(C)C2CC=C2C3CC(C)(C)C(O)C(OC(C)=O)C3(COC(C)=O)C(O)CC21C` (centres unmarked) [Compound H5]: “moderate”.
The same measure, in the same setting: the same measure for `CC(=O)OCC1(C)C(OC(C)=O)CCC2(C)C1CCC1(C)C2CC=C2C3CC(C)(C)C(O)C(O)C3(COC(C)=O)C(O)CC21C` (centres unmarked) [Compound H6]: “moderate”.
In the case of `CC(=O)OCC1(C)C(O)CCC2(C)C1CCC1(C)C2CC=C2C3CC(C)(C)C(O)C(O)C3(COC(C)=O)C(OC(C)=O)CC21C` (centres unmarked) [Compound H7], the Cytotoxicity activity result under setting [2] is given as “moderate”.
Still for that read-out and setting: the same measure for `CC(=O)OCC1(C)C(O)CCC2(C)C1CCC1(C)C2CC=C2C3CC(C)(C)C(OC(C)=O)C(OC(C)=O)C3(COC(C)=O)C(O)CC21C` (centres unmarked) [Compound H8]: “weak”.
Same read-out and setting: the same measure for `CC(=O)OCC1(C)C(OC(C)=O)CCC2(C)C1CCC1(C)C2CC=C2C3CC(C)(C)C(O)C(OC(C)=O)C3(COC(C)=O)C(O)CC21C` (centres unmarked) [Compound H9]: “weak”.
Still for that read-out and setting: the same measure for `CC(=O)OCC1(C)C(OC(C)=O)CCC2(C)C1CCC1(C)C2CC=C2C3CC(C)(C)C(O)C(O)C3(COC(C)=O)C(OC(C)=O)CC21C` (centres unmarked) [Compound H10]: “weak”; for `CC(=O)OCC1(C)C(OC(C)=O)CCC2(C)C1CCC1(C)C2CC=C2C3CC(C)(C)C(OC(C)=O)C(O)C3(COC(C)=O)C(O)CC21C` (centres unmarked) [Compound H11]: “weak”.
With `CC(=O)OCC1(C)C(O)CCC2(C)C1CCC1(C)C2CC=C2C3CC(C)(C)C(O)C(OC(C)=O)C3(COC(C)=O)C(OC(C)=O)CC21C` (centres unmarked) [Compound H12], under setting [2], the Cytotoxicity activity result was “weak”.
The same measure, in the same setting: the same measure for `CC(=O)OCC1(C)C(O)CCC2(C)C1CCC1(C)C2CC=C2C3CC(C)(C)C(OC(C)=O)C(O)C3(COC(C)=O)C(OC(C)=O)CC21C` (centres unmarked) [Compound H13]: “weak”.
Same read-out and setting: the same measure for `CC(=O)OCC1(C)C(OC(C)=O)CCC2(C)C1CCC1(C)C2CC=C2C3CC(C)(C)C(O)C(OC(C)=O)C3(COC(C)=O)C(O)CC21C` (centres unmarked) [Compound H14]: “weak”; for `CC(=O)OCC1(C)C(OC(C)=O)CCC2(C)C1CCC1(C)C2CC=C2C3CC(C)(C)C(OC(C)=O)C(OC(C)=O)C3(COC(C)=O)C(O)CC21C` (centres unmarked) [Compound H15]: “weak”.
